Values of other authors, collected in patent publication US20120027718A1, “COMBINATION THERAPY WITH GLATIRAMER ACETATE AND RASAGILINE FOR THE TREATMENT OF MULTIPLE SCLEROSIS” (Teva Pharmaceutical Industries, Ltd., priority 2005, published 2012).

How the values were obtained:
stroke models = conditions: in vivo
[1] = system: models of traumatic head injury; conditions: in vivo

Row | Molecule | efficacy in stroke models (stroke models) | efficacy in models of traumatic head injury [1] | relapse rates, progression of disability, appearance of new lesions by MRI and appearance of black holes (multiple sclerosis (MS); daily subcutaneous injections, 20 mg/injection) | efficacy in treating multiple sclerosis (multiple sclerosis (MS); human, in vivo)
1 | C#CCN[C@@H]1CCc2ccccc21 [Rasagiline, R(+)-N-propargyl-1-aminoindan] | effective | effective |  | 
2 | L-glutamic acid polymer with L-alanine, L-lysine and L-tyrosine, acetate (salt) [Glatiramer acetate] |  |  | reduce | effective
